The source of these data is PubChem BioAssay AID256 (DTP/NCI, 2004).

Structures are written as SMILES. “And” between values parts separate entries of the source, which are not always exact repeats. Identical values can stand only once. Inconclusive results and toxic doses are left out.

This experiment deals with CD2F1 mice, L1210 leukemia ip, survival T/C. The experiment in a line: NCI In Vivo Anticancer Drug Screen. Data for tumor model L1210 Leukemia (intraperitoneal) in CD2F1 (CDF1) mice. The note with it: endpoint: mean survival time, higher = longer survival. The method, boiled down: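 In this screen, transplantable tumors were grown in mice given either the compound or its vehicle. Results were expressed as the treated measurement relative to the control measurement.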

[1] abbreviates: dose: 100.0 mg/kg/injection, schedule: Q01DX009 (ip), vehicle: saline with Tween-80.
Setting [2] is: dose: 100.0 mg/kg/injection, schedule: Q04DX003 (ip), vehicle: saline with Tween-80.
The mark [3] stands for this setting: dose: 200.0 mg/kg/injection, schedule: Q01DX009 (ip), vehicle: saline with Tween-80.
Where [4] appears, read: dose: 200.0 mg/kg/injection, schedule: Q04DX003 (ip), vehicle: saline with Tween-80.
Where [5] appears, read: dose: 400.0 mg/kg/injection, schedule: Q04DX003 (ip), vehicle: saline with Tween-80.
Where [6] appears, read: dose: 12.5 mg/kg/injection, schedule: Q04DX003 (ip), vehicle: saline.
Setting [7] is: dose: 25.0 mg/kg/injection, schedule: Q04DX003 (ip), vehicle: saline.
Setting [8] is: dose: 50.0 mg/kg/injection, schedule: Q01DX009 (ip), vehicle: saline with Tween-80.
[9] abbreviates: dose: 25.0 mg/kg/injection, schedule: Q01DX009 (ip), vehicle: saline with Tween-80.

With `O=[N+]([O-])c1ccc(Sc2ccc(Cl)cc2)cc1`, the T/C is, setting by setting: (dose: 100.0 mg/kg/injection, schedule: Q01DX001 (ip), vehicle: other) 95 % of control; under setting [1], 98 % of control; under setting [2], 104 % of control; (dose: 200.0 mg/kg/injection, schedule: Q01DX001 (ip), vehicle: other) 102 % of control; under setting [3], 98 % of control; under setting [4], 95 % of control. Besides, the T/C (dose: 400.0 mg/kg/injection, schedule: Q01DX001 (ip), vehicle: other) is 107 % of control and the T/C under setting [5] is 103 % of control.
For `Cc1ccc(NCCNCC(C)(C)O)c2c(=O)c3ccccc3sc12`, the T/C under setting [6] was 100 % of control; the T/C under setting [7] was 103 % of control; the T/C (dose: 50.0 mg/kg/injection, schedule: Q01DX001 (ip), vehicle: saline) was 93 % of control; the T/C (dose: 50.0 mg/kg/injection, schedule: Q04DX003 (ip), vehicle: saline) is 92 % of control.
For the compound `COc1cc2c(c(OC)c1OC)-c1cc3c(cc1[C@@H](OC(C)=O)[C@@H]1COC(=O)[C@H]1C2)OCO3`, the T/C is 95 % of control (dose: 1.25 mg/kg/injection, schedule: Q01DX009 (ip), vehicle: Klucel (hydroxypropylcellulose) (HPC)); 103 % of control (dose: 2.5 mg/kg/injection, schedule: Q01DX009 (ip), vehicle: Klucel (hydroxypropylcellulose) (HPC)); 97 % of control (dose: 5.0 mg/kg/injection, schedule: Q01DX009 (ip), vehicle: Klucel (hydroxypropylcellulose) (HPC)); 112 % of control (dose: 10.0 mg/kg/injection, schedule: Q01DX009 (ip), vehicle: Klucel (hydroxypropylcellulose) (HPC)).
Regarding `CC(C)(C)N`, the T/C is, setting by setting: (dose: 100.0 mg/kg/injection, schedule: Q01DX001 (ip), vehicle: saline with Tween-80) 100 % of control; (dose: 200.0 mg/kg/injection, schedule: Q01DX001 (ip), vehicle: saline with Tween-80) 97 % of control; (dose: 400.0 mg/kg/injection, schedule: Q01DX001 (ip), vehicle: saline with Tween-80) 97 % of control.
On to `O=C1c2ccccc2C(O)(c2[nH]nc3ccccc23)N1c1ccccc1` (stereo not drawn), for which the T/C is 103 % of control (dose: 50.0 mg/kg/injection, schedule: Q04DX002 (ip), vehicle: saline with Tween-80); 103 % of control (dose: 100.0 mg/kg/injection, schedule: Q04DX002 (ip), vehicle: saline with Tween-80); 113 % of control (dose: 200.0 mg/kg/injection, schedule: Q04DX002 (ip), vehicle: saline with Tween-80); 106 % of control (dose: 400.0 mg/kg/injection, schedule: Q04DX002 (ip), vehicle: saline with Tween-80).
As for `CCOC(=O)C1=NN(c2ccccc2)C(=O)C1`, the T/C by setting is: under setting [1], 94 % of control; under setting [3], 94 % of control; (dose: 400.0 mg/kg/injection, schedule: Q01DX009 (ip), vehicle: saline with Tween-80) 92 % of control.
As to `CCCCCCCCCCCC(C)(O)C#N` (stereo not drawn), the T/C was 96 % of control (dose: 100.0 mg/kg/injection, schedule: Q04DX002 (ip), vehicle: saline); 92 % of control (dose: 200.0 mg/kg/injection, schedule: Q04DX002 (ip), vehicle: saline); 100 % of control (dose: 400.0 mg/kg/injection, schedule: Q04DX002 (ip), vehicle: saline).
With `O=C(Nc1nc2c(ccc3ccccc32)s1)Nc1ccccc1F`, the T/C runs as follows: under setting [8], 94 % of control; under setting [1], 97 % of control; under setting [3], 105 % of control.
`CCOC(=O)C1C2OC(=O)C(C(=O)C2CN(CCCl)CCCl)C1C1CC=C(CC2=CCC(C3C4C(=O)OC(C(CN(CCCl)CCCl)C4=O)C3C(=O)OCC)CC2)CC1` (stereo not drawn): the T/C was 121 % of control (dose: 6.25 mg/kg/injection, schedule: Q01DX009 (ip), vehicle: Klucel (hydroxypropylcellulose) (HPC)); 121 % of control (dose: 12.5 mg/kg/injection, schedule: Q01DX009 (ip), vehicle: Klucel (hydroxypropylcellulose) (HPC)); 154 % of control and 162 % of control (dose: 50.0 mg/kg/injection, schedule: Q01DX009 (ip), vehicle: Klucel (hydroxypropylcellulose) (HPC)); 154 % of control and 232 % of control (dose: 100.0 mg/kg/injection, schedule: Q01DX009 (ip), vehicle: Klucel (hydroxypropylcellulose) (HPC)); 111 % of control (dose: 200.0 mg/kg/injection, schedule: Q01DX009 (ip), vehicle: Klucel (hydroxypropylcellulose) (HPC)); 88 % of control (dose: 400.0 mg/kg/injection, schedule: Q01DX009 (ip), vehicle: Klucel (hydroxypropylcellulose) (HPC)).
Take `Cc1ccc([N+](=O)[O-])c(P(=O)(O)O)c1`: the T/C reads like this: under setting [9], 91 % of control; under setting [8], 88 % of control; under setting [1], 87 % of control.
As for `O=C(Nc1ccccc1[N+](=O)[O-])Oc1ccccc1`, the T/C is 96 % of control (dose: 75.0 mg/kg/injection, schedule: Q04DX002 (ip), vehicle: saline with Tween-80); 96 % of control (dose: 150.0 mg/kg/injection, schedule: Q04DX002 (ip), vehicle: saline with Tween-80); 96 % of control (dose: 300.0 mg/kg/injection, schedule: Q04DX002 (ip), vehicle: saline with Tween-80).
Consider `CCOC(=O)C1C(=O)N(c2ccccc2)C(=O)N1c1ccccc1` (stereo not drawn), for which the T/C (dose: 12.5 mg/kg/injection, schedule: Q01DX009 (ip), vehicle: other) was 89 % of control; the T/C (dose: 25.0 mg/kg/injection, schedule: Q01DX009 (ip), vehicle: other) was 89 % of control; the T/C (dose: 50.0 mg/kg/injection, schedule: Q01DX009 (ip), vehicle: other) was 103 % of control; the T/C (dose: 100.0 mg/kg/injection, schedule: Q01DX009 (ip), vehicle: other) is 93 % of control; the T/C (dose: 200.0 mg/kg/injection, schedule: Q01DX009 (ip), vehicle: other) is 98 % of control.
With `c1cc[c]([Sb]([c]2ccccc2)[c]2ccccc2)cc1`, the T/C is 97 % of control (dose: 20.0 mg/kg/injection, schedule: Q04DX003 (ip), vehicle: saline sonified) and 94 % of control (dose: 40.0 mg/kg/injection, schedule: Q04DX003 (ip), vehicle: saline sonified).
On to `CCN1CC2c3cc(OC)c(OC)cc3CC(c3ccccc3)C2C1` (stereo not drawn), for which the T/C was 108 % of control (dose: 12.5 mg/kg/injection, schedule: Q04DX003 (ip), vehicle: saline with Tween-80); 104 % of control (dose: 25.0 mg/kg/injection, schedule: Q04DX003 (ip), vehicle: saline with Tween-80); 92 % of control (dose: 50.0 mg/kg/injection, schedule: Q04DX003 (ip), vehicle: saline with Tween-80).
For the compound `CC/C(=C(/CC)c1ccc(OP(N)(=O)N(CCCl)CCCl)cc1)c1ccc(OP(N)(=O)N(CCCl)CCCl)cc1` (stereo not drawn), the T/C by setting is: (dose: 90.0 mg/kg/injection, schedule: Q01DX001 (ip), vehicle: DMSO) 100 % of control; (dose: 133.0 mg/kg/injection, schedule: Q01DX001 (ip), vehicle: DMSO) 98 % of control; (dose: 200.0 mg/kg/injection, schedule: Q01DX001 (ip), vehicle: DMSO) 102 % of control; (dose: 300.0 mg/kg/injection, schedule: Q01DX001 (ip), vehicle: DMSO) 113 % of control.
Consider `N#CCCCN1CCCCC1`, for which the T/C by setting is: (dose: 6.25 mg/kg/injection, schedule: Q01DX009 (ip), vehicle: saline with Tween-80) 103 % of control; (dose: 6.25 mg/kg/injection, schedule: Q04DX003 (ip), vehicle: saline) 89 % of control; (dose: 12.5 mg/kg/injection, schedule: Q01DX009 (ip), vehicle: saline with Tween-80) 97 % of control; under setting [6], 98 % of control; under setting [9], 100 % of control; under setting [7], 93 % of control.
For the compound `CCCC(=O)NNC(=O)c1ccccn1`, the T/C is 109 % of control (dose: 100.0 mg/kg/injection, schedule: Q01DX009 (ip), vehicle: saline sonified); 101 % of control under setting [2]; 104 % of control under setting [4]; 106 % of control under setting [5].
